This is an account of results in paper PMC11676896, “Protective Action of Cannabidiol on Tiamulin Toxicity in Humans—In Vitro Study” (International Journal of Molecular Sciences, 2024).

The structures appear in SMILES notation. Structures can show the parent of a compound that is named as a salt.

The test system of series [1] is HepG2 cells. Kind of series: Cytotoxicity over the five assays (MTT, NRU, TPC, LDH, BrdU). It is filed as cell-based. The settings on record: Homo sapiens, HepG2, 72 h, read-out: IC50 values, range over the five assays. How it is done: (§1) The cytotoxic potential of the veterinary drug and its mixtures with cannabidiol at two non-toxic concentrations: 1.56 and 3.15 µg/mL, on the human SH-SY5Y, HepG2 and HEK 293 cell lines was assessed by decreased viability of the cells within five biochemical endpoints: mitochondrial activity and lysosomal activity (MTT assays, reducing the tetrazolium dye MTT 3-(4,5-dimethylthiazol-2-yl)-2,5-diphenyltetrazolium bromide and neutral red uptake (NRU) assays), total protein content (TPC assay), cellular membrane integrity (leakage lactate dehydrogenase (LDH) assay) and DNA synthesis (the bromodeoxyuridine/5-bromo-2′-deoxyuridine incorporation into the DNA cells (BrdU) assay) after 72 h exposition. Data obtained from the measurement of the optical density in these assays were transformed to percentages in relation to the negative control group (0.1% DMSO in medium), considered to be 100% for the MTT, NRU, TPC and BrdU assays and 0% for the LDH assay. 1% Trition-X 100 solution in medium was used as the positive controls, (Figure 3).
(§2) The human neuroblastoma (SH-SY5H), hepatoma (HepG2) and kidney cells (HEK 293) cells were purchased from the American Type Culture Collection: ATCCCRL-2266,ATCC HB-8065 and ATCC CRL-1573, respectively. These cells were cultured in Minimum Essential Medium Eagle (MEME) (ATCC). […] Cytotoxicity was assessed after 72 h of exposure of the cells to the compounds. […]

In series [2] the test system is HEK-293 cells. Described as above. The class given is cell-based. Conditions: Homo sapiens, HEK293, 72 h, read-out: IC50 values, range over the five assays. How it is done: as §1, §2
The test system of series [3] is primary porcine hepatocytes. Set-up: method as in PMID 10682383. Conditions: 250 µM (123.5 µg/mL), 24 h of exposure; cited from earlier work.
The next series deals with CYP3A4. Also on record: method as in PMID 15013817. The settings on record: cited from earlier work.
Series [4] has as its system HepG2 cells. Kind of series: MTT assay (mitochondrial activity). It is filed as cell-based, human. Conditions: HepG2, 72 h. How it is done:
as §1
(§3) The human neuroblastoma (SH-SY5H), hepatoma (HepG2) and kidney cells (HEK 293) cells were purchased from the American Type Culture Collection: ATCCCRL-2266,ATCC HB-8065 and ATCC CRL-1573, respectively. These cells were cultured in Minimum Essential Medium Eagle (MEME) (ATCC). The media were supplemented with 10% FBS, 1% L-glutamine (and 1% antibiotic solution (P4333 Sigma). The cells were maintained in 75 cm^2 cell culture flasks (NUNC) in a humidified incubator at 37 °C in an atmosphere of 5% CO2. The medium was refreshed every two or three days, and the cells were subcultured by 0.25% trypsin–0.02% EDTA after reaching 70–80% confluence. Single cell suspensions were prepared and adjusted to a density of 2 × 10^5 cell/mL^−1 (SH-SY5H), 1 × 10^5 cell/mL^−1 (HepG2) and 1 × 10^5 cell/mL^−1 (HEK-293). The cell suspension was transferred to 96-well plates (100 µL/well) or Lab-Tek chamber slides (8 wells) (Nunc) for staining and incubated for 24 h before the exposure to the studied compounds. Stock solutions of tiamulin fumarate and cannabidiol were prepared in DMSO and diluted with culture medium to obtain a concentration range from 1.56 to 200 µg/mL and 1.56 or 3.156 µg/mL, respectively. The selection of tiamulin concentrations was based on data from the literature and pilot studies. The final concentration of DMSO was 0.1% in the medium. The same final concentrations of the solvent and the 1% Trition-X 100 solution were used as the negative and positive controls, respectively. A total of 500 µM hydrogen peroxide (H2O2) in was used as the positive control in the DCFH assay. […] As a negative control, cultured cells were grown in the absence of studied compounds. Each concentration was tested in six replicates in three independent experiments. Cytotoxicity was assessed after 72 h of exposure of the cells to the compounds. The medium was not changed during the incubation time.
(§4) The metabolic activity of living cells was assessed by the measurement of the activity of dehydrogenases. After the incubation of the cells with the studied compounds, 10 μL of the MTT solution (5 mg/mL in PBS) was added to each well of 96-well plates and incubated. After 3 h, the MTT solution was removed, and the intracellular formazan crystals were dissolved in 100 µL DMSO. The plate was shaken for 15 min at room temperature and transferred to a Synergy 2 Multi-Mode Microplate Reader (BioTek® Instruments Inc., Winooski, VT, USA) to measure the absorbance at 570 nm, using a blank as a reference. Cytotoxicity was expressed as a percentage of the negative control (0.1% DMSO in medium).
(§5) This study was performed in three independent experiments. The obtained results are presented as mean values ± SD (standard deviation). […]

Series [5] deals with SH-SY5Y cells. Kind of series: MTT assay (mitochondrial activity). The class given is cell-based, human. The settings on record: 72 h. How it is done:
as §1, §3, §4, §5

The subject of another series is HEK 293 cells. Kind of series: MTT assay (mitochondrial activity). It is filed as cell-based, human. How it is done:
as §1, §3, §4, §5

A further series has as its system MDA-MB-231. Set-up: method as in PMID 28399915. Conditions: MDA-MB-231, dose 6.25–100 µg/mL, treatment period 12–48 h; cited from earlier work.
The subject of series [6] is HepG2 cells. Kind of series: Hoechst 33342/propidium iodide double staining (apoptosis and necrosis). The class given is cell-based. Conditions: HepG2, 72 h of incubation. An excerpt: (§6) After assessing the cytotoxicity of tiamulin and its mixtures with CBD, cell death was examined using the Hoechst 33342/propidium iodide (PI) double staining test (Figure 6). The intensity of the blue color and the presence of fragmented, blue-stained cellular components indicated apoptotic cell death after Hoechst 33342 staining. Necrotic cell death was identified by red fluorescence after PI staining. […] Mixtures of tiamulin and CBD caused a decrease in both apoptotic and necrotic cell death.
(§7) The analysis of type and level of cellular death in the control and tested cultures was evaluated using fluorochrome staining, Hoechst 33342 (Sigma, St. Louis, MO, USA) and propidium iodide (Sigma, St. Louis, MO, USA) mixed for apoptosis and necrosis evaluation. Using an Axiaert 200 M fluorescence micrscope (Zeiss, Obercochem, Germany), dead cells were analyzed morphologically. Cells with pink fluorescent nuclei were considered necrotic, whereas those with blue fluorescent nuclei (fragmented and/or with condensed chromatin) were considered apoptotic.

In series [7] the test system is HEK-293 cells. Described as above. The settings on record: HEK-293, 72 h of incubation. The class given is cell-based.
From the text: as §6, §7

For series [8], the system named is SH-SY5Y cells. Described as above. It is filed as cell-based. The settings on record: 72 h of incubation.
From the text: as §6, §7

Setting [9] is: Homo sapiens, read-out: inhibited concentration (IC50), MTT.

Take `C=C[C@]1(C)C[C@@H](OC(=O)CSCCN(CC)CC)[C@]2(C)[C@H](C)CC[C@]3(CCC(=O)[C@H]32)[C@@H](C)[C@@H]1O` [T, tiamulin fumarate]: the IC50 in the series with HepG2 cells [1] is 13.9 to 39.5 µg/mL; with HEK-293 cells [2], 8.5 to 76.9 µg/mL; in the series with HepG2 cells [4] (setting [9]), 27.4 ± 1.3 µg/mL; with SH-SY5Y cells [5] (setting [9]) it was 30.2 ± 1.8 µg/mL; with HEK 293 cells (Homo sapiens, HEK293, 72 h, read-out: inhibited concentration (IC50), MTT) it was 27.5 ± 0.8 µg/mL. In addition, the “ROS production in the hepatocyte culture” value in series [3] was “increased ROS production”. The “effect on CYP3A4” value in the series with CYP3A4 is “strongly blocks CYP3A4”. For the same compound, the “tiamulin concentration that inhibited mitochondrial activity” value with HepG2 cells [4] came to 12.5 µg/mL; with SH-SY5Y cells [5] (significant (p ≤ 0.05) vs negative control), 6.25 µg/mL; in the series with HEK 293 cells (HEK-293, 72 h) it was 25 µg/mL. In addition, the cell viability result with MDA-MB-231 is on record as “cell viability decreased with increasing dose”. Moreover, the “apoptotic and necrotic cell death” value with HepG2 cells [6] was “significant apoptotic and necrotic profiles”; with HEK-293 cells [7], “significant apoptotic and necrotic profiles”; with SH-SY5Y cells [8] it was “slight increase in apoptotic and necrotic cells”.
